Read-outs that look alike come from different tables or passages of the source.
Key:
[1] = system: plasma high density lipoprotein cholesterol (HDLC); test: increasing rate of plasma high density lipoprotein cholesterol (HDLC) concentration; type: in vivo, male Wistar rats; settings: 300 mg/kg/day oral for 2 days; rat; vs control
Procedure: Increasing rate (%) of plasma high density lipoportein cholesterol (HDLC) concentration which is performed by a carboxamide compound of the general formula (I) of the present invention was conducted as follows.
Seven-week-old male Wistar rats were used.
The test compound was orally administered for 2 days at a daily dose of 300 mg/kg body weight to each of six (6) rats in test group. The dosing vehicle was 0.5% sodium carboxylmethylcellulose solution, and the dosing volume was 5 ml/kg body weight.
Similar to the procedures taken to the rats in the test group, to each one of six (6) rats in control group was orally administered 0.5% sodium carboxymethylcelluose solution only.
On day 2, after fasting for 20 hours, blood was drawn from the jagular sinus with a heparinized syringe. Plasma was obtained by centrifugation.
Plasma HDLC was determined after precipitation of other lipid fraction with heparin and Ca^2+ by using HDL-C Kit-N (manufactured by Hihon Shoji Kabushiki Kaisha).
Increasing rate (%) of plasma HDLC concentration performed by a test compound was calculated from the formula as follows: [formula]

[2] = system: Triton WR-1339-induced hyperlipidemia in rat; test: antilipotropic effect in Triton WR-1339-induced hyperlipidemia in rat; type: in vivo, Wistar-strain male rats; settings: 50 mg/kg oral, vs control
Text: Wistar-strain male rats of 5-9 week age were used as test animals. One test group consisting of six (6) rats.
[a] is a determined value obtained from the control group, and
[b] is a determined value obtained from the test group).

[3] = system: biosynthetic pathway of cholesterol; test: inhibitory effect in biosynthetic pathway of cholesterol; type: biochemical; settings: 10^-4 M; rat liver microsomes and soluble fraction; 90 min, 100 µM
Procedure: Test for determining inhibitory effect in biosynthetic pathway of cholesterol
Each one of the test compounds was added to rat liver microsomes fraction (containing 0.2 mg of protein) and soluble fraction (containing 2 mg of protein), then the volume of the mixture was adjusted to 100 microliters by adding 0.1 M-potassium phosphate buffer solution (pH 7.4), then this mixture was incubated at 37° C. for 10 minutes.
After the incubation, the reaction was started by adding 200 microliters of a solution containing 1 mM ATP, 10 mM glucose-1-phosphate, 6 mM glutathione, 6 mM MgCl2, […], 0.25 mM […], 0.25 mM NADP, and 1 mM [1-^14 C] sodium acetate (3.0 mCi/mM).
The whole mixture was incubated at 37° C. for 90 minutes, then the reaction was terminated by adding […] of 15%-KOH (a 95% ethanol solution), next 2 mg of cholesterol was added thereto, saponified at 75° C. for 1 hour, and cholesterol was extracted with petroleum ether, the extract was concentrated to dryness. To the residue thus obtained was added with 2.5 ml of a mixture of acetone-diethyl ether (1:1) and 2.5 ml of 1%-digitonin (a 50% ethanol solution), then this solution was allowed to stand for 1 hour in cooling condition by using ice-water to precipitate cholesterol. The precipitate was washed with acetone, a mixture of acetonediethyl ether (1:1) and diethyl ether in this order, then the radioactivity of the residue was measured by using a liquid scintillation counter.
(§1) Control test was also conducted by the procedures similar to those mentioned above in the test group, except that each one of the test compounds was not used.
Inhibitory effect in biosynthetic pathway of cholesterol performed by each one of the test compounds was calculated, in terms of inhibitory ratio (%), from the formula on the basis of the radioactivity of the control group as follows: [formula] (wherein
[c] is a radioactivity of the control group, and
[d] is a radio activity of the test group).

[4] = system: acyl-CoA:cholesterol acyltransferase (ACAT); test: inhibitory effect in the enzymatic activities of acyl-CoA:cholesterol acyltransferase (ACAT); type: biochemical; settings: rat liver microsomes, 2 min; for Inhibitory effect to ACAT (inhibitory ratio): 10^-4 M, 100 µM; for Inhibitory effect to ACAT (inhibitory ratio), Table 5: head prints 10^14 M
Procedure: Test for determining inhibitory effect in the enzymatic activities of acyl-CoA:cholesterol acyltranferase (ACAT)
50 Microliters of each one of the test compounds was added to rat liver microsomes fraction (containing 0.4 mg of protein) of which volume was adjusted to 150 microliters by adding 0.15 M-potassium phosphate buffer solution (pH 7.4), then the mixture was incubated at 37° C. for 10 minutes. After the incubation, the reaction was started by adding 50 microliters of 0.15 M-potassium phosphate buffer solution (pH 7.4) containing 18 nM [1-^14 C] oleoyl-CoA (10 mCi/mM) and 0.6 mg BSA (bovine serum albumin) at 37° C. for 2 minutes. The reaction was terminated by adding 1 ml of ethanol, then 4 ml of n-hexane was added and shaken, then the n-hexane layer (upper layer) was concentrated to the volume of 3 ml under nitrogen gas stream, thus obtained cholesteryl oleate was isolated by means of a silica gel thin chromatography [developing solvent=petroleum ether: diethyl ether (95:5)] and the radioactivity was measured by using a liquid scintillation counter.
as §1
Inhibitory effect in the enzymatic activities of acyl-CoA:cholesterol acyltransferase (ACAT) performed by each one of the test compounds was calculated, in terms of inhibitory ratio (%), from the formula on the basis of the radioactivity of the control group as follows: [formula] (wherein
[e] is a radioactivity of the control group, and
[f] is a radioactivity of the test group).

[5] = large amount for a long period; animal test; cited from earlier work
[6] = system: Streptozotocin-induced diabetes in rat; test: serum lipids lowering effect to Streptozotocin-induced diabetes in rat; type: in vivo, Wistar-strain male rats; settings: 4 hours after 25 mg/kg oral, Streptozocin 100 mg/kg tail vein
Procedure: Test for determining serum lipids lowering effect to Streptozotocin-induceddiabetes in rat
Wistar-strain male rats of 7 week age were used as test animals. One test group consisting of six (6) rats. 100 Milligrams/kg of Streptozocin was administered to the tail vein of the test rat, then 4th day after the administration with Streptozocin, 25 mg/kg of each of the test compounds which was suspended in 0.5%-CMC-Na aqueous solution was orally administered to the rat. Similar to the test group, to each of six (6) rats in control group was administered with Streptozocin, and further orally administered with 0.5%-CMC-Na aqueous solution without containing each of the test compounds.
4 Hours after the administration of each of the test compounds, the blood sample was taken from each of the test rats, and serum triglycerids was measured by using a test reagent of Triglyceride G-Test Wako (manufacturedby Wako Pure Chemicals, Co., Ltd.).

Acute toxicity test = type: in vivo, Wistar-strain male rats; settings: in vivo; oral; rat
Text: (§2) Each of carboxamide compounds represented by the formula (1), which is the active ingredient contained in pharmaceutical composition according to the present invention, was suspended in 5%-CMC-Na aqueous solution and administered orally to Wistar-strain male rats of 7 week age (one test group consisting of 6 rats) so as to observe the acute toxicity of each of the carboxamide compounds.
(§3) Thus, LD50 value of Test compound No. 2 is considered to higher than […]. Thus, carboxamide compounds represented by the formula (1) according to the present invention can be said as quite safety compounds.

Wistar-strain male rats = test: Acute toxicity test; type: in vivo; settings: 2 g/kg oral; rat
Text: as §2, §3

[7] = 24 hours after Triton WR-1339 (400 mg/kg, tail vein), read-out: lowering ratio of serum triglycerides, 24 hours after Triton WR-1339
[8] = 24 hours after Triton WR-1339 (400 mg/kg, tail vein), read-out: lowering ratio of total serum cholesterol, 24 hours after Triton WR-1339
[9] = 48 hours after Triton WR-1339 (400 mg/kg, tail vein), read-out: lowering ratio of serum triglycerides, 48 hours after Triton WR-1339
[10] = 48 hours after Triton WR-1339 (400 mg/kg, tail vein), read-out: lowering ratio of total serum cholesterol, 48 hours after Triton WR-1339
[11] = 24 hours after Triton WR-1339 (400 mg/kg, tail vein)
[12] = 48 hours after Triton WR-1339 (400 mg/kg, tail vein)

Compound: CCOP(=O)(Cc1ccc(C(=O)Nc2ccc(Cl)cc2C#N)cc1)OCC [compound 72]
- Increasing rate (%) of high density lipids concentration in the serum (plasma HDLC) [1]: 196%

Compound: CCOP(=O)(Cc1ccc(C(=O)Nc2ccc(C#N)cc2Cl)cc1)OCC [compound 73]
- Increasing rate (%) of high density lipids concentration in the serum (plasma HDLC) [1]: 187%

Compound: CCOP(=O)(Cc1ccc(C(=O)N(Cc2ccccc2)c2ccc([N+](=O)[O-])cc2)cc1)OCC [compound 10]
- inhibition in vivo at 50 mg/kg [2, 7]: 26.9%
- inhibition in vivo at 50 mg/kg [2, 8]: 0%
- inhibition in vivo at 50 mg/kg [2, 9]: 68.7%
- inhibition in vivo at 50 mg/kg [2, 10]: 16.1%
- Inhibitory ratio of cholesterol biosynthesis [3]: 75.6%
- Inhibitory effect to ACAT (inhibitory ratio) [4]: 69.4%

Compound: CCOP(=O)(Cc1ccc(C(=O)Nc2ccc(Br)cc2C#N)cc1)OCC [compound 71]
- Increasing rate (%) of high density lipids concentration in the serum (plasma HDLC) [1]: 193%

Compound: CCOC(=O)C(C)(C)Oc1ccc(Cl)cc1 [Clofibrate]
- formation of hepatic tumor [5]: the formation of hepatic tumor was observed

Compound: CCOP(=O)(Cc1ccc(C(=O)Nc2ccc(C#N)cc2Br)cc1)OCC [compound 75]
- Increasing rate (%) of high density lipids concentration in the serum (plasma HDLC) [1]: 222%

Compound: 4-diethoxyphosphinoylmethyl-N-(4-bromo-2-cyanophenyl)benzamide [Test compound No. 71]
- lowering ratio of serum triglycerides, 24 hours after Triton WR-1339 [2, 11]: 85.3%
- lowering ratio of total serum cholesterol, 24 hours after Triton WR-1339 [2, 11]: 51.6%
- lowering ratio of serum triglycerides, 48 hours after Triton WR-1339 [2, 12]: 95.9%
- lowering ratio of total serum cholesterol, 48 hours after Triton WR-1339 [2, 12]: 67.9%
- Inhibitory ratio of cholesterol biosynthesis [3]: 56.6%
- Inhibitory effect to ACAT (inhibitory ratio), Table 5 [4]: 79.2%

Compound: CCOP(=O)(Cc1ccc(C(=O)Nc2ccc(Br)cc2)cc1)OCC [compound 8]
- inhibition in vivo at 50 mg/kg [2, 7]: 86.8%
- inhibition in vivo at 50 mg/kg [2, 8]: 52.2%
- inhibition in vivo at 50 mg/kg [2, 9]: 92.5%
- inhibition in vivo at 50 mg/kg [2, 10]: 63.6%
- Serum triglyceride [6]: 471 mg/dL

Compound: CCOP(=O)(Cc1ccc(C(=O)Nc2ccc(Br)c(C#N)c2)cc1)OCC [compound 76]
- Increasing rate (%) of high density lipids concentration in the serum (plasma HDLC) [1]: 111%

Compound: CCOP(=O)(Cc1ccc(C(=O)N2CCN(c3ccc(Cl)cc3)CC2)cc1)OCC [compound 58]
- Inhibitory ratio of cholesterol biosynthesis [3]: 58.4%
- Inhibitory effect to ACAT (inhibitory ratio) [4]: 56.6%

Compound: CC(C)OP(=O)(Cc1ccc(C(=O)NCCc2ccccc2)cc1)OC(C)C [compound 11]
- inhibition in vivo at 50 mg/kg [2, 7]: 0%
- inhibition in vivo at 50 mg/kg [2, 8]: 13.5%
- inhibition in vivo at 50 mg/kg [2, 9]: 56.8%
- inhibition in vivo at 50 mg/kg [2, 10]: 32.6%
- Inhibitory ratio of cholesterol biosynthesis [3]: 67.4%
- Inhibitory effect to ACAT (inhibitory ratio), Table 5 [4]: 83.3%

Compound: CCC(C)(Oc1ccc(C2(c3ccc(OC(C)(CC)C(=O)O)cc3)CCCCC2)cc1)C(=O)O (stereo not drawn) [Clinofibrate, reference compound]
- inhibition in vivo at 50 mg/kg [2, 7]: 13.6%
- inhibition in vivo at 50 mg/kg [2, 8]: 9.8%
- inhibition in vivo at 50 mg/kg [2, 9]: 1.1%
- inhibition in vivo at 50 mg/kg [2, 10]: 1.9%
- Serum triglyceride [6]: 2,067 mg/dl

Compound: CCOP(=O)(Cc1ccc(C(=O)N(Cc2ccccc2)c2cc(OC)c(OC)c(OC)c2)cc1)OCC [compound 52]
- Inhibitory ratio of cholesterol biosynthesis [3]: 65.6%
- Inhibitory effect to ACAT (inhibitory ratio) [4]: 60.5%

Compound: CCOP(=O)(Cc1ccc(C(=O)Nc2ccc(I)cc2C#N)cc1)OCC [compound 74]
- Increasing rate (%) of high density lipids concentration in the serum (plasma HDLC) [1]: 187%

Compound: CCOP(=O)(Cc1ccc(C(=O)N(Cc2ccccc2)c2ccc(Cl)cc2)cc1)OCC [Test compound No. 2]
- LD50 (Acute toxicity test): > 2000 mg/kg
- lethal cases (Wistar-strain male rats): not any lathal case at all

Compound: CCOP(=O)(Cc1ccc(C(=O)N(Cc2ccccc2)c2cccc(C(F)(F)F)c2)cc1)OCC [compound 50]
- Inhibitory ratio of cholesterol biosynthesis [3]: 78.2%
- Inhibitory effect to ACAT (inhibitory ratio) [4]: 84.8%

Compound: CCOP(=O)(Cc1ccc(C(=O)Nc2cccc(C(F)(F)F)c2)cc1)OCC [compound 27]
- Inhibitory ratio of cholesterol biosynthesis [3]: 36.2%
- Inhibitory effect to ACAT (inhibitory ratio), Table 5 [4]: 39.5%

Compound: CCOP(=O)(Cc1ccc(C(=O)Nc2ccc(C#N)cc2I)cc1)OCC [compound 77]
- Increasing rate (%) of high density lipids concentration in the serum (plasma HDLC) [1]: 184%

Compound: CCOP(=O)(Cc1ccc(C(=O)N(c2ccccc2)C(C)C)cc1)OCC [compound 32]
- Inhibitory ratio of cholesterol biosynthesis [3]: 36.4%
- Inhibitory effect to ACAT (inhibitory ratio), Table 5 [4]: 20.1%
